Data reported in patent US7285543B2, “Purine inhibitors of fructose-1,6-bisphosphatase” (Metabasis Therapeutics, Inc., priority 1997, dated 2007).
Each block holds one compound with its values, some of them ahead of it.

Legend:
[1] = Estimation of the oral bioavailability of prodrugs of phosphonic acids (urinary recovery); assay type: in vivo, rat; conditions: for oral bioavailability: rat, estimated from urinary recovery vs intravenous parent
Procedure: Prodrugs were dissolved in 10% ethanol/90% polyethylene glycol (mw 400) and administered by oral gavage at doses of approximately 20 or 40 mg/kg parent compound equivalents to 6-hour fasted, Sprague Dawley rats (220-240 g). The rats were subsequently placed in metabolic cages and urine was collected for 24 hours. The quantity of parent compound excreted into urine was determined by HPLC analysis. An ODS column eluted with a gradient from potassium phosphate buffer, pH 5.5 to acetonitrile was employed for these measurements. Detection was at 310-325 nm. […] Parent compounds were typically dissolved in dimethyl sulfoxide, and administered via the tail vein in animals that were briefly anesthetized with halothane.

[2] = target: T1, allosteric AMP binding site of hlFBPase (Homo sapiens, UniProt P09467); test: AMP site binding: displacement of 3H-AMP from hlFBPase; conditions: for EC50: 3H-AMP, hlFBPase, read-out: ED50 for AMP displacement; for displacement of AMP from hlFBPase (FIG. 3): result in words
T1 construct: made in house; host or cells: E. coli BL21
T1 sequence (P09467 2-338 limits assumed): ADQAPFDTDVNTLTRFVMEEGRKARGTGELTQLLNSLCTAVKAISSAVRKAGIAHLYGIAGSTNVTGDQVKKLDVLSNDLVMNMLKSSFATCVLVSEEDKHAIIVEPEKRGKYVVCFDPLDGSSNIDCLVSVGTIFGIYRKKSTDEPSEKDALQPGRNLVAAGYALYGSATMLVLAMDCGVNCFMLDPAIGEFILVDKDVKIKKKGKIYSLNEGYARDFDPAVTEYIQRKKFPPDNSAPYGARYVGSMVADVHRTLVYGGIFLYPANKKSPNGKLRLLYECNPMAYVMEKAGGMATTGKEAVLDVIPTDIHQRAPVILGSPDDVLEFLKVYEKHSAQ
Procedure: To determine whether compounds bind to the allosteric AMP binding site of hlFBPase, the enzyme was incubated with radiolabeled AMP in the presence of a range of test compound concentrations. The reaction mixtures consisted of […] ^3H-AMP (54 mCi/mmol) and […] test compound in 25 mM Tris-HCl, pH 7.4, 100 mM KCl and 1 mM MgCl2. 1.45 mg of homogeneous FBPase (±1 nmole) was added last. After a 1 minute incubation, AMP bound to FBPase was separated from unbound AMP by means of a centrifugal ultrafiltration unit (“Ultrafree-MC”, Millipore) used according to the instructions of the manufacturer. The radioactivity in aliquots (100 μl) of the upper compartment of the unit (the retentate, which contains enzyme and label) and the lower compartment (the filtrate, which contains unbound label) were quantified using a Beckman liquid scintillation counter. The amount of AMP bound to the enzyme was estimated by comparing the counts in the filtrate (the unbound label) to the total counts in the retentate.

human liver FBPase = target: T2, human liver FBPase (Homo sapiens, UniProt P09467); test: Inhibition of human liver FBPase (coupled spectrophotometric assay); assay type: biochemical
T2 construct: made in house; host or cells: E. coli BL21
T2 sequence (P09467 2-338 limits assumed): T1 sequence (P09467 2-338 limits assumed)

[3] = test system: Zucker Diabetic Fatty rats; test: Blood glucose lowering in Zucker Diabetic Fatty rats; assay type: in vivo, rat; conditions: 50 mg/kg intraperitoneal, 2 hours post dose, 24-hour fasted
Procedure: Zucker Diabetic Fatty rats purchased at 7 weeks of age were used at age 16 weeks in the 24-hour fasted state. The rats were purchased from Genetics Models Inc. and fed the recommended Purina 5008 diet (6.5% fat). Their fasting hyperglycemia at 24 hours ranged from 150 mg/dL to 310 mg/dL blood glucose.
The stock solution was made up at […] in deionized water and adjusted to neutrality by dropwise, addition of 5 N NaOH. 5 control animals were dosed with saline. Blood glucose was measured at the time of dosing and 2 hours post dose as described in Example F.

rat hepatocytes [4] = test: Gluconeogenesis from dihydroxyacetone in rat hepatocytes: glucose production and fructose 1,6-bisphosphate accumulation; assay type: cell-based
Procedure: Isolated rat hepatocytes were prepared as described in Example D and incubated under the identical conditions described except that lactate/pyruvate was replaced by 10 mM dihydroxyacetone, a substrate which feeds into the gluconeogenic pathway at a step just prior to FBPase. Reactions were terminated by removing an aliquot (250 μL) of cell suspension and spinning it through a layer of oil (0.8 mL silicone/mineral oil, 4/1) into a 10% perchloric acid layer (100 μL). […] After thorough mixing and centrifugation, the supernatant was analyzed for glucose content as described in Example D, and also for fructose-1,6-bisphosphate. Fructose-1,6-bisphosphate was assayed spectrophotometrically by coupling its enzymatic conversion to glycerol 3-phosphate to the oxidation of NADH, which was monitored at 340 nm. Reaction mixtures (1 mL) consisted of 200 mM Tris-HCl, pH 7.4, 0.3 mM NADH, 2 units/mL glycerol 3-phosphate dehydrogenase, 2 units/mL triosephosphate isomerase, and 50-100 μl cell extract. After a 30 minute preincubation at 37° C., 1 unit/mL of aldolase was added and the change in absorbance measured until a stable value was obtained. 2 moles of NADH are oxidized in this reaction per mole of fructose-1,6-bisphosphate present in the cell extract.

rat hepatocytes [5] = test: Inhibition of gluconeogenesis (glucose production from lactate/pyruvate) in rat hepatocytes; assay type: cell-based; conditions: for IC50: from lactate/pyruvate, isolated rat hepatocytes
Procedure: Hepatocytes were prepared from overnight fasted Sprague-Dawley rats (250-300 g) according to the procedure of Berry and Friend (Berry, M. N., Friend, D. S., J. Cell. Biol. 1969, 43, 506-520) as modified by Groen (Groen, […]., Eur. J. Biochem. 1982, 122, 87-93). […] Incubations were carried out in a 95% oxygen, 5% carbon dioxide atmosphere in closed, 50-mL Falcon tubes submerged in a rapidly shaking water bath (37° C.). After 1 hour, an aliquot (0.25 mL) was removed, transferred to an Eppendorf tube and centrifuged. 50 μl of supernatant was then assayed for glucose content using a Sigma Glucose Oxidase kit as per the manufacturer's instructions.

[6] = test system: 18 hours fasted Sprague-Dawley rats; test: Blood glucose and liver fructose-1,6-bisphosphate accumulation in fasted rats; assay type: in vivo, rat; conditions: 20 mgs/kg intraperitoneally
[7] = Analysis of drug levels in plasma and liver of rats; assay type: in vivo, rat; conditions: 20 mgs/kg intraperitoneally, one hour post injection
[8] = target: T3, Adenylate Kinase (rabbit muscle) (Oryctolagus cuniculus, UniProt P00569); test: AMP site/enzyme selectivity: adenylate kinase; assay type: biochemical; conditions: selectivity table; read-out: Adenylate Kinase (inh.)
T3 construct: purchased Sigma
T3 sequence (P00569 1-194): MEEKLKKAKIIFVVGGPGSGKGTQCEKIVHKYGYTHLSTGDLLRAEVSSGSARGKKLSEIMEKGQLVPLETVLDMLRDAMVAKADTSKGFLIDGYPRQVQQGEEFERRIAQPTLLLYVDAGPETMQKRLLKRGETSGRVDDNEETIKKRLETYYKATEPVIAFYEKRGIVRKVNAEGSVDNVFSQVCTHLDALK

[9] = test system: Zucker Diabetic Fatty rats; test: Inhibition of gluconeogenesis (14C-bicarbonate incorporation into glucose) in Zucker Diabetic Fatty rats; assay type: in vivo, rat; conditions: 50 mg/kg intraperitoneal
Procedure: Blood samples (0.6 mL) were obtained by cardiac puncture 10 and 20 minutes post tracer injection. Blood (0.5 mL) was diluted into 6 mL deionized water and protein precipitated by addition of 1 mL zinc sulfate (0.3 N) and 1 mL barium hydroxide (0.3 N). The mixture was centrifuged (20 minutes, 1000×g) and 5 mL of the resulting supernatant was then combined with 1 g of a mixed bed ion exchange resin (1 part AG 50W-X8, 100-200 mesh, hydrogen form and 2 parts of AG 1-X8, 100-200 mesh, acetate form) to separate ^14C-bicarbonate from ^14C-glucose. The slurry was shaken at room temperature for four hours and then allowed to settle. An aliquot of the supernatant (0.5 mL) was then counted in 5 mL scintillation cocktail.

[10] = test system: 18 hours fasted Sprague Dawley rats; test: Blood glucose lowering in fasted rats; assay type: in vivo, rat; conditions: 35, 45, and 60 mg/kg intraperitoneally, result in words
Procedure: The vehicle used for drug administration was dimethylsulfoxide. Blood samples were obtained from the tail vein of conscious animals just prior to injection and then at half-hourly intervals. Blood glucose was measured using a HemoCue Inc. glucose analyzer according to the instructions of the manufacturer.

rat hepatocytes [11] = conditions: 10 μM prodrug, within 10 minutes
Procedure: Rat hepatocytes were prepared and incubated as in Example D, except that the test compound, 16.4, was added to yield a final concentration of 10 μM. Aliquots of the cell suspension were taken at 0, 5, 10, 20, 30, 45, and 60 minutes after drug exposure.

mouse liver FBPase = target: T4, mouse liver FBPase (Mus musculus, UniProt Q9QXD6); test: In vitro inhibition of mouse liver FBPase; assay type: biochemical
T4 construct: This partially purified fraction was used for enzyme assays; from tissue; host or cells: mouse liver
T4 sequence (Q9QXD6 2-338 limits assumed): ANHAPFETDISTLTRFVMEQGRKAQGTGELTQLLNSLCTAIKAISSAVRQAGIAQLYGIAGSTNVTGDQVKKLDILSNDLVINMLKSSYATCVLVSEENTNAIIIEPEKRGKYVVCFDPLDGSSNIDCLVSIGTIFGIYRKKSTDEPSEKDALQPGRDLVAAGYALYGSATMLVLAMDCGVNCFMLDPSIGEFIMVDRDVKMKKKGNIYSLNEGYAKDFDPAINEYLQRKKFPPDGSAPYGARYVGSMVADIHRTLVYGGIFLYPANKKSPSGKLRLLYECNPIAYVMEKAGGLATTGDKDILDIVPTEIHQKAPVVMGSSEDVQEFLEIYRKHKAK
Procedure: (§1) Mouse liver FBPase was obtained by homogenizing freshly isolated mouse liver in 100 mM Tris-HCl buffer, pH 7.4, containing 1 mM EGTA, and 10% glycerol. […] This fraction was redissolved in the homogenization buffer and desalted on a PD-10 gel filtration column (Biorad) eluted with same. This partially purified fraction was used for enzyme assays. Both rat liver and mouse liver FBPase were assayed as described for human liver FBPase.

rat liver FBPase = target: T5, rat liver FBPase (Rattus norvegicus, UniProt P19112); test: In vitro inhibition of rat liver FBPase; assay type: biochemical
T5 construct: made in house; host or cells: E. coli BL21
T5 sequence (P19112 2-363 limits assumed): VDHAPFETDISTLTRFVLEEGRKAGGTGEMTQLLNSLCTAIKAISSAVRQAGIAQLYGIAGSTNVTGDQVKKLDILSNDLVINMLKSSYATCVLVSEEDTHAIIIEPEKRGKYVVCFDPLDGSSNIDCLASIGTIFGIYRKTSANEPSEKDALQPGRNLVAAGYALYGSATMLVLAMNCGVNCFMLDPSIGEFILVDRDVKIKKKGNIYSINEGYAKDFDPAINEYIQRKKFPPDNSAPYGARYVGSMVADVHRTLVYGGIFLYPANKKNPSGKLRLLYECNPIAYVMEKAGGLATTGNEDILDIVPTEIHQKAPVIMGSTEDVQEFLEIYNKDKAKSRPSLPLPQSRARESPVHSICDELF
Procedure: as §1

SMILES: CC(C)(C)Cn1c(-c2ccc(P(=O)(OCOC(=O)C(C)(C)C)OCOC(=O)C(C)(C)C)o2)nc2c(N)ncnc21 [Compound 16.5, 6-Amino-9-neopentyl-8-(2-(5-dipivaloxymethylphosphono)furanyl)purine]
oral bioavailability [1]: 5.3%

SMILES: CC(C)C(=O)OCOP(=O)(OCOC(=O)C(C)C)c1ccc(-c2nc3c(N)ncnc3n2CC(C)(C)C)o1 [Compound 16.4, 6-Amino-9-neopentyl-8-(2-(5-diisobutyrylmethylphosphono)furanyl)-purine]
blood glucose lowering (FIG. 6) [10]: profound glucose lowering | intracellular concentration of compound 2.7 (rat hepatocytes [11]): approximately 80 nmoles/g | IC50 (rat hepatocytes [5]): 3 µM | glucose production in rat hepatocytes (FIG. 11B) (rat hepatocytes [5]; result in words): inhibited glucose production | oral dose recovered in urine (as parent compound) ([1]; oral, approximately 20 mg/kg, 24 hours urine): 6.2% | oral bioavailability [1]: approximately 8%

More lines, main results first:

EC50 [2]: 250 µM | IC50 (human liver FBPase): 12 µM
SMILES: NC(=O)c1ncn([C@@H]2O[C@H](COP(=O)(O)O)[C@@H](O)[C@H]2O)c1N [ZMP, aminoimidazolecarboxamideriboside monophosphate, reference compound]
displacement of AMP from hlFBPase (FIG. 3) [2]: displaced AMP from hlFBPase in a dose-dependent manner

drug level in liver [7]: 51.3 ± 10 nmol/g | concentration at 1 h ([7]; Sprague-Dawley, rat, plasma, ip, 20 mg/kg, read-out: drug level in plasma): 38.5 ± 7 µM | IC50 [8]: > 500 µM | intravenous dose recovered in urine ([1]; intravenous, approximately 10 mg/kg, 24 hours urine): 76.8%
SMILES: CC(C)(C)Cn1c(-c2ccc(P(=O)(O)O)o2)nc2c(N)ncnc21 [Compound 2.7, N^9-neopentyl-8-(2-(5-phosphono)furanyl)adenine]
blood glucose lowered, average [3]: ~20% | IC50 (rat hepatocytes [4]; Hepatocyte, 10 mM dihydroxyacetone, rat hepatocytes): ~5 µM | accumulation of fructose-1,6-bisphosphate in hepatocytes (FIG. 4B) (rat hepatocytes [4]; dihydroxyacetone, result in words): dose-dependent accumulation of fructose-1,6-bisphosphate | IC50 (rat hepatocytes [5]; Hepatocyte): 4.5 µM | elevation of fructose-1,6-bisphosphate levels in liver ([6]; one hour post injection): 10 fold | blood glucose after treatment ([6]; within one hour, lowered from 82±3): 28 ± 9.9 mg/dL | reduction of incorporation of 14C-bicarbonate into glucose [9]: 75%

EC50 [2]: 35 µM | IC50 (mouse liver FBPase): > 20 µM | IC50 (rat liver FBPase): > 20 µM
SMILES: Nc1ncnc2c1nc(-c1ccc(P(=O)(O)O)o1)n2CCC1CCCCC1 [Compound 2.2, N^9-(2-cyclohexylethyl)-8-(2-(5-phosphono)furanyl)adenine]
displacement of AMP from hlFBPase (FIG. 3) [2]: displaced AMP from hlFBPase in a dose-dependent manner | IC50 (rat hepatocytes [5]; Hepatocyte): 90 µM
